Key:
[1] = In vitro metabolic stability, rat microsomes; type: in vitro ADME; details: liver microsomes
Protocol: In Vitro Metabolic Stability. As described by Charman et al. (2020), metabolic stability assays were performed by incubating test compounds in liver microsomes at 37° C. and 0.4 mg/mL protein concentration. The metabolic reaction was initiated by the addition of an NADPH-regenerating system and quenched at various time points over a 60 min incubation period by the addition of acetonitrile containing diazepam as internal standard. Control samples (containing no NADPH) were included (and quenched at 2, 30 and 60 min) to monitor for potential degradation in the absence of cofactor.

[2] = Chemical stability (acid, base, H2O2); type: physicochemical
Protocol: Samples were neutralised and diluted to a nominal concentration of 100 μg/mL in 50% aq MeOH. […] A single degradation peak appeared in all the basic samples corresponding to the urea carboxylic acid hydrolysis product.

S. japonicum = S. japonicum infections in mice; type: in vivo

Q: Which microsomal CLint [1] does the source give for `[2H]C([2H])([2H])C1(C([2H])([2H])[2H])NC(=O)N(c2ccc(F)c(C(C)(F)F)c2)C1=O` [Compound IE, 3-(3-(1,1-difluoroethyl)-4-fluorophenyl)-5,5-bis(methyl-d3)imidazolidine-2,4-dione] here?
A: < 7 µL/min/mg

Q: And the “loss of parent compound, acidic conditions” value ([2]; 0.01 M and 0.1 M HCl, up to 48 h)?
A: minimal loss

Q: And the “loss of parent compound, basic conditions” value ([2]; 0.01 M and 0.1 M NaOH, after 2 min)?
A: significant loss

Q: And the “loss of parent compound, 15% H2O2” value ([2]; 15% H2O2 incubation)?
A: no significant loss

Q: And the ED50 (S. japonicum; Schistosoma japonicum, oral)?
A: 6.7 mg/kg

Q: What about the “clearance of S. japonicum infections” value (S. japonicum; single 25 mg/kg oral dose) of the same molecule?
A: completely cleared

Source: patent publication US20250353819A1, “ARYL HYDANTOIN COMPOUNDS AND METHODS OF USE” (priority 2022, published 2025)
